Results published in PubChem BioAssay (NCI).
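96-well plates; 48 h exposure; 5 concentrations. Endpoints by linear interpolation between flanking doses. Not reached: highest tested concentration assigned. TGI: concentration producing complete growth inhibition.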

Key:
Experiment in all cases: inhibition of tumour cell growth, NCI panel, 48 h
A498 renal = tested on: A498 renal
NCI-H460 lung = tested on: NCI-H460 lung
SF-539 CNS = tested on: SF-539 CNS
MDA-N = tested on: MDA-N
RXF 393 renal = tested on: RXF 393 renal
OVCAR-4 ovarian = tested on: OVCAR-4 ovarian
NCI/ADR-RES ovarian = tested on: NCI/ADR-RES ovarian
HOP-62 NSCLC = tested on: HOP-62 NSCLC
SNB-19 CNS = tested on: SNB-19 CNS
HS 578T breast = tested on: HS 578T breast
MDA-MB-231 breast = tested on: MDA-MB-231 breast
CCRF-CEM leukemia = tested on: CCRF-CEM leukemia
MOLT-4 leukemia = tested on: MOLT-4 leukemia
SN12C renal = tested on: SN12C renal
M14 melanoma = tested on: M14 melanoma
PC-3 prostate = tested on: PC-3 prostate
CAKI-1 renal = tested on: CAKI-1 renal
HCT-15 colon = tested on: HCT-15 colon
OVCAR-5 ovarian = tested on: OVCAR-5 ovarian
OVCAR-3 ovarian = tested on: OVCAR-3 ovarian
LOX IMVI melanoma = tested on: LOX IMVI melanoma
EKVX NSCLC = tested on: EKVX NSCLC
UACC-62 melanoma = tested on: UACC-62 melanoma
RPMI-8226 leukemia = tested on: RPMI-8226 leukemia
HOP-92 NSCLC = tested on: HOP-92 NSCLC
DU-145 prostate = tested on: DU-145 prostate
COLO 205 colon = tested on: COLO 205 colon
SW-620 colon = tested on: SW-620 colon
A549 NSCLC = tested on: A549 NSCLC
SF-295 CNS = tested on: SF-295 CNS
HCC-2998 colon = tested on: HCC-2998 colon
T-47D breast = tested on: T-47D breast
SK-MEL-2 melanoma = tested on: SK-MEL-2 melanoma
UO-31 renal = tested on: UO-31 renal
MALME-3M melanoma = tested on: MALME-3M melanoma
OVCAR-8 ovarian = tested on: OVCAR-8 ovarian
SNB-75 CNS = tested on: SNB-75 CNS
ACHN renal = tested on: ACHN renal
TK-10 renal = tested on: TK-10 renal
SK-MEL-28 melanoma = tested on: SK-MEL-28 melanoma
SF-268 CNS = tested on: SF-268 CNS
SK-MEL-5 melanoma = tested on: SK-MEL-5 melanoma
MCF7 breast = tested on: MCF7 breast
K-562 leukemia = tested on: K-562 leukemia
SK-OV-3 ovarian = tested on: SK-OV-3 ovarian
KM12 colon = tested on: KM12 colon
IGROV1 ovarian = tested on: IGROV1 ovarian
NCI-H226 lung = tested on: NCI-H226 lung
U251 CNS = tested on: U251 CNS
NCI-H23 lung = tested on: NCI-H23 lung
NCI-H522 lung = tested on: NCI-H522 lung
BT-549 breast = tested on: BT-549 breast
HCT-116 colon = tested on: HCT-116 colon
786-0 renal = tested on: 786-0 renal
UACC-257 melanoma = tested on: UACC-257 melanoma
MDA-MB-435 = tested on: MDA-MB-435
HT29 colon = tested on: HT29 colon
SR leukemia = tested on: SR leukemia

## CC(=O)Oc1ccccc1/C=C/C(=O)/C=C/c1ccccc1OC(C)=O
A498 renal
  TGI: 4.01 µM
NCI-H460 lung
  TGI: 6.48 µM
SF-539 CNS
  TGI: 3.33 µM
MDA-N
  TGI: 6.67 µM
RXF 393 renal
  TGI: 1.65 µM
OVCAR-4 ovarian
  TGI: 10.2 µM
NCI/ADR-RES ovarian
  TGI: 7.39 µM
HOP-62 NSCLC
  TGI: 5.32 µM
SNB-19 CNS
  TGI: 6.53 µM
HS 578T breast
  TGI: > 51.9 µM
MDA-MB-231 breast
  TGI: 6.08 µM
CCRF-CEM leukemia
  TGI: 12.6 µM
MOLT-4 leukemia
  TGI: 5.71 µM
SN12C renal
  TGI: 4.07 µM
M14 melanoma
  TGI: 4.45 µM
PC-3 prostate
  TGI: 5.04 µM
CAKI-1 renal
  TGI: 10.4 µM
HCT-15 colon
  TGI: 9.34 µM
OVCAR-5 ovarian
  TGI: 4.35 µM
OVCAR-3 ovarian
  TGI: 4.23 µM
LOX IMVI melanoma
  TGI: 2.01 µM
EKVX NSCLC
  TGI: 9.9 µM
UACC-62 melanoma
  TGI: 3.48 µM
RPMI-8226 leukemia
  TGI: 1.84 µM
HOP-92 NSCLC
  TGI: 10.7 µM
DU-145 prostate
  TGI: 9.59 µM
COLO 205 colon
  TGI: 4.06 µM
SW-620 colon
  TGI: 2.32 µM
A549 NSCLC
  TGI: 6.37 µM
SF-295 CNS
  TGI: 6.11 µM
HCC-2998 colon
  TGI: 4.18 µM
T-47D breast
  TGI: 34.9 µM
SK-MEL-2 melanoma
  TGI: 21.1 µM
UO-31 renal
  TGI: 3.48 µM
MALME-3M melanoma
  TGI: 6.11 µM
OVCAR-8 ovarian
  TGI: 5.12 µM
SNB-75 CNS
  TGI: 5.95 µM
ACHN renal
  TGI: 3.62 µM
TK-10 renal
  TGI: 10.6 µM
SK-MEL-28 melanoma
  TGI: 4.09 µM
SF-268 CNS
  TGI: 8.17 µM
SK-MEL-5 melanoma
  TGI: 3.45 µM
MCF7 breast
  TGI: 4.99 µM
K-562 leukemia
  TGI: 4.53 µM
SK-OV-3 ovarian
  TGI: 13.6 µM
KM12 colon
  TGI: 3.06 µM
IGROV1 ovarian
  TGI: 4.52 µM
NCI-H226 lung
  TGI: 3.89 µM
U251 CNS
  TGI: 3.18 µM
NCI-H23 lung
  TGI: 4.61 µM
NCI-H522 lung
  TGI: 4.69 µM
BT-549 breast
  TGI: 3.97 µM
HCT-116 colon
  TGI: 0.973 µM
786-0 renal
  TGI: 3.71 µM
UACC-257 melanoma
  TGI: 2.96 µM
MDA-MB-435
  TGI: 5.37 µM
HT29 colon
  TGI: 4.25 µM

## CCOc1ccc(N/C(Cl)=C(Cl)\C(=C(\Nc2ccc(OCC)cc2)n2nnc3ccccc32)[N+](=O)[O-])cc1
A498 renal
  TGI: 39 µM
NCI-H460 lung
  TGI: > 59.7 µM
SF-539 CNS
  TGI: 11.1 µM
MDA-N
  TGI: 13.2 µM
RXF 393 renal
  TGI: 5.39 µM
OVCAR-4 ovarian
  TGI: 30.8 µM
NCI/ADR-RES ovarian
  TGI: > 100 µM
HOP-62 NSCLC
  TGI: > 100 µM
SNB-19 CNS
  TGI: 34.4 µM
HS 578T breast
  TGI: > 100 µM
MDA-MB-231 breast
  TGI: 15.6 µM
CCRF-CEM leukemia
  TGI: 33.9 µM
MOLT-4 leukemia
  TGI: > 100 µM
SN12C renal
  TGI: 23.3 µM
M14 melanoma
  TGI: 17.3 µM
PC-3 prostate
  TGI: 21.6 µM
CAKI-1 renal
  TGI: 3.49 µM
HCT-15 colon
  TGI: 7.4 µM
OVCAR-5 ovarian
  TGI: 27 µM
OVCAR-3 ovarian
  TGI: 20.3 µM
LOX IMVI melanoma
  TGI: 3.96 µM
EKVX NSCLC
  TGI: 31.3 µM
UACC-62 melanoma
  TGI: 34.6 µM
RPMI-8226 leukemia
  TGI: > 30.5 µM
HOP-92 NSCLC
  TGI: 5.56 µM
DU-145 prostate
  TGI: 46.8 µM
COLO 205 colon
  TGI: 25.4 µM
SW-620 colon
  TGI: 5.71 µM
A549 NSCLC
  TGI: 66.8 µM
SF-295 CNS
  TGI: 57.7 µM
HCC-2998 colon
  TGI: 46.6 µM
T-47D breast
  TGI: 29.1 µM
SK-MEL-2 melanoma
  TGI: 35.5 µM
SR leukemia
  TGI: 5.26 µM
UO-31 renal
  TGI: 23.9 µM
MALME-3M melanoma
  TGI: 5.49 µM
OVCAR-8 ovarian
  TGI: 3.46 µM
SNB-75 CNS
  TGI: 42.5 µM
ACHN renal
  TGI: 15.1 µM
TK-10 renal
  TGI: 17.1 µM
SK-MEL-28 melanoma
  TGI: 20.9 µM
SF-268 CNS
  TGI: 32.1 µM
SK-MEL-5 melanoma
  TGI: 24.5 µM
MCF7 breast
  TGI: 24.6 µM
K-562 leukemia
  TGI: > 21.6 µM
SK-OV-3 ovarian
  TGI: > 100 µM
KM12 colon
  TGI: > 57.6 µM
IGROV1 ovarian
  TGI: 5.33 µM
NCI-H226 lung
  TGI: 60.5 µM
U251 CNS
  TGI: 22 µM
NCI-H23 lung
  TGI: 22.3 µM
NCI-H522 lung
  TGI: 2.86 µM
BT-549 breast
  TGI: 14 µM
HCT-116 colon
  TGI: 5.29 µM
786-0 renal
  TGI: 14.2 µM
UACC-257 melanoma
  TGI: 28.6 µM
MDA-MB-435
  TGI: 23.7 µM
HT29 colon
  TGI: 3.46 µM
